Assay results from the CheMixHub viscosity set.

Assay: xn = mol fraction of the nth substance listed

CCCCOC(C)=O + CCC(C)O
viscosity [mPa·s], 100 kPa
Conditions	x1 = 0.081	x1 = 0.16	x1 = 0.24	x1 = 0.35	x1 = 0.44	x1 = 0.5598	x1 = 0.6499	x1 = 0.74	x1 = 0.85	x1 = 0.94
293.15 K	2.444	1.639	1.195	0.976	0.907	0.859	0.827	0.794	0.757	0.736
298.15 K	2.041	1.423	1.045	0.87	0.805	0.768	0.746	0.732	0.703	0.681
303.15 K	1.797	1.267	0.941	0.767	0.713	0.692	0.677	0.663	0.649	0.636
308.15 K	1.523	1.084	0.844	0.692	0.644	0.618	0.604	0.597	0.592	0.584
313.15 K	1.28	0.951	0.756	0.633	0.585	0.555	0.544	0.541	0.546	0.542
318.15 K	1.111	0.828	0.681	0.575	0.531	0.506	0.5	0.5	0.502	0.501
323.15 K	0.963	0.748	0.619	0.535	0.497	0.477	0.466	0.46	0.455	0.457

CCCN + CCC(C)O
303.15 K, 101 kPa
Conditions	viscosity [mPa·s]
x1 = 0.008438	2.439
x1 = 0.01874	2.408
x1 = 0.02903	2.377
x1 = 0.04186	2.343
x1 = 0.0458	2.329
x1 = 0.05767	2.3
x1 = 0.06786	2.277
x1 = 0.07593	2.253
x1 = 0.08515	2.224

CCCCOC(C)=O + CCCCCC
viscosity [mPa·s]
Conditions	298.15 K	308.15 K
101 kPa, x1 = 0.0521	0.3	0.282
101 kPa, x1 = 0.1491	0.319	0.3
101 kPa, x1 = 0.2486	0.341	0.321
101 kPa, x1 = 0.3517	0.368	0.346
101 kPa, x1 = 0.4482	0.397	0.372
101 kPa, x1 = 0.4932	0.412	0.385
101 kPa, x1 = 0.5515	0.433	0.403
101 kPa, x1 = 0.6483	0.472	0.436
101 kPa, x1 = 0.7486	0.519	0.474
101 kPa, x1 = 0.8491	0.574	0.517
101 kPa, x1 = 0.9461	0.635	0.565
101.3 kPa, x1 = 0.1335	0.3275	–
101.3 kPa, x1 = 0.2322	0.3509	–
101.3 kPa, x1 = 0.3294	0.3762	–
101.3 kPa, x1 = 0.4644	0.4191	–
101.3 kPa, x1 = 0.5644	0.4558	–
101.3 kPa, x1 = 0.6697	0.4996	–
101.3 kPa, x1 = 0.8002	0.5626	–
101.3 kPa, x1 = 0.8967	0.6164	–
101.3 kPa, x1 = 0.9324	0.6456	–

CCCOC(=O)c1ccccc1 + CCCCCC
101 kPa
Conditions	viscosity [mPa·s]
298.15 K, x2 = 0.0545	2.09
298.15 K, x2 = 0.1249	1.794
298.15 K, x2 = 0.1605	1.659
298.15 K, x2 = 0.2369	1.409
298.15 K, x2 = 0.2765	1.298
298.15 K, x2 = 0.33	1.155
298.15 K, x2 = 0.3772	1.043
298.15 K, x2 = 0.4847	0.827
298.15 K, x2 = 0.5259	0.756
298.15 K, x2 = 0.5689	0.69
298.15 K, x2 = 0.6152	0.627
298.15 K, x2 = 0.6632	0.569
298.15 K, x2 = 0.7031	0.525
298.15 K, x2 = 0.7496	0.479
298.15 K, x2 = 0.7954	0.448
298.15 K, x2 = 0.8308	0.42
298.15 K, x2 = 0.8752	0.399
298.15 K, x2 = 0.9201	0.371
298.15 K, x2 = 0.9574	0.351
308.15 K, x2 = 0.0876	1.62
308.15 K, x2 = 0.1454	1.451
308.15 K, x2 = 0.1923	1.32
308.15 K, x2 = 0.2499	1.174
308.15 K, x2 = 0.3064	1.046
308.15 K, x2 = 0.3543	0.95
308.15 K, x2 = 0.4116	0.845
308.15 K, x2 = 0.4488	0.785
308.15 K, x2 = 0.5082	0.698
308.15 K, x2 = 0.5509	0.643
308.15 K, x2 = 0.5926	0.594
308.15 K, x2 = 0.6346	0.55
308.15 K, x2 = 0.6803	0.507
308.15 K, x2 = 0.7241	0.468
308.15 K, x2 = 0.7719	0.433
308.15 K, x2 = 0.8096	0.406
308.15 K, x2 = 0.857	0.376
308.15 K, x2 = 0.8946	0.354
308.15 K, x2 = 0.9406	0.334
318.15 K, x2 = 0.0693	1.388
318.15 K, x2 = 0.1096	1.288
318.15 K, x2 = 0.1613	1.172
318.15 K, x2 = 0.221	1.048
318.15 K, x2 = 0.2711	0.954
318.15 K, x2 = 0.3284	0.856
318.15 K, x2 = 0.3767	0.781
318.15 K, x2 = 0.432	0.705
318.15 K, x2 = 0.4801	0.644
318.15 K, x2 = 0.5314	0.586
318.15 K, x2 = 0.5757	0.54
318.15 K, x2 = 0.6264	0.494
318.15 K, x2 = 0.6694	0.457
318.15 K, x2 = 0.7292	0.411
318.15 K, x2 = 0.76	0.391
318.15 K, x2 = 0.8056	0.362
318.15 K, x2 = 0.8466	0.34
318.15 K, x2 = 0.892	0.32
318.15 K, x2 = 0.9292	0.304

CCCCCCCC(=O)O + CCCCCC(=O)[O-].[Na+]
100 kPa, x2 = 0.3
Conditions	viscosity [mPa·s]
293.15 K	305.9
298.15 K	226.5
303.15 K	171.1
308.15 K	131.6
313.15 K	103
318.15 K	81.7
323.15 K	65.7

CCCCCCCCCCCCCCCCCCCC + CCCCCCC
viscosity [mPa·s], 101.3 kPa
Conditions	x1 = 0.2	x1 = 0.4	x1 = 0.499	x1 = 0.597	x1 = 0.796
293.2 K	0.9382	–	–	–	–
303.2 K	0.8194	1.567	2.02	–	–
313.2 K	0.7187	1.327	1.705	2.145	2.989

CCCCOC(C)=O + CCCCCCC
298.15 K, 101.3 kPa
Conditions	viscosity [mPa·s]
x1 = 0.0364	0.4006
x1 = 0.1529	0.4135
x1 = 0.2504	0.4295
x1 = 0.3266	0.4449
x1 = 0.4281	0.4667
x1 = 0.5399	0.4974
x1 = 0.6531	0.5328
x1 = 0.7531	0.5696
x1 = 0.8609	0.6155
x1 = 0.9693	0.6674

CCCOC(=O)c1ccccc1 + CCCCCCC
viscosity [mPa·s], 101 kPa
Conditions	x1 = 0.099	x1 = 0.1965	x1 = 0.2952	x1 = 0.395	x1 = 0.4959	x1 = 0.5924	x1 = 0.6991	x1 = 0.7981	x1 = 0.8973
298.15 K	0.444	0.516	0.603	0.707	0.842	1.017	1.254	1.526	1.853
308.15 K	0.399	0.466	0.531	0.614	0.734	0.874	1.051	1.248	1.525
318.15 K	0.358	0.408	0.472	0.55	0.638	0.754	0.897	1.064	1.266

CCCCOC(C)=O + CCCCCCCC
298.15 K, 101.3 kPa
Conditions	viscosity [mPa·s]
x1 = 0.0442	0.5144
x1 = 0.1275	0.5154
x1 = 0.2822	0.5241
x1 = 0.3556	0.5333
x1 = 0.4596	0.5465
x1 = 0.5629	0.5633
x1 = 0.6356	0.5776
x1 = 0.7305	0.5991
x1 = 0.8441	0.6298
x1 = 0.9724	0.6725

CCCOC(=O)c1ccccc1 + CCCCCCCC
101 kPa
Conditions	viscosity [mPa·s]
298.15 K, x2 = 0.0773	2.082
298.15 K, x2 = 0.1026	1.998
298.15 K, x2 = 0.1613	1.792
298.15 K, x2 = 0.2565	1.512
298.15 K, x2 = 0.3067	1.381
298.15 K, x2 = 0.3482	1.286
298.15 K, x2 = 0.3951	1.187
298.15 K, x2 = 0.4424	1.094
298.15 K, x2 = 0.4882	1.018
298.15 K, x2 = 0.5342	0.948
298.15 K, x2 = 0.5836	0.882
298.15 K, x2 = 0.6253	0.828
298.15 K, x2 = 0.6796	0.769
298.15 K, x2 = 0.727	0.723
298.15 K, x2 = 0.8351	0.633
298.15 K, x2 = 0.9429	0.558
308.15 K, x2 = 0.0816	1.645
308.15 K, x2 = 0.13	1.512
308.15 K, x2 = 0.1656	1.421
308.15 K, x2 = 0.2095	1.318
308.15 K, x2 = 0.2541	1.225
308.15 K, x2 = 0.2993	1.136
308.15 K, x2 = 0.3584	1.034
308.15 K, x2 = 0.3968	0.972
308.15 K, x2 = 0.4503	0.897
308.15 K, x2 = 0.4892	0.846
308.15 K, x2 = 0.5375	0.79
308.15 K, x2 = 0.5822	0.743
308.15 K, x2 = 0.6192	0.707
308.15 K, x2 = 0.6824	0.653
308.15 K, x2 = 0.7188	0.625
308.15 K, x2 = 0.7692	0.588
308.15 K, x2 = 0.8292	0.55
308.15 K, x2 = 0.8674	0.527
308.15 K, x2 = 0.9303	0.497
318.15 K, x2 = 0.0629	1.422
318.15 K, x2 = 0.09	1.361
318.15 K, x2 = 0.1362	1.261
318.15 K, x2 = 0.1878	1.163
318.15 K, x2 = 0.233	1.081
318.15 K, x2 = 0.2525	1.047
318.15 K, x2 = 0.33	0.926
318.15 K, x2 = 0.3813	0.856
318.15 K, x2 = 0.4267	0.801
318.15 K, x2 = 0.4776	0.744
318.15 K, x2 = 0.5373	0.686
318.15 K, x2 = 0.5751	0.653
318.15 K, x2 = 0.6208	0.616
318.15 K, x2 = 0.671	0.581
318.15 K, x2 = 0.7073	0.556
318.15 K, x2 = 0.7545	0.53
318.15 K, x2 = 0.8156	0.497
318.15 K, x2 = 0.8667	0.472
318.15 K, x2 = 0.9127	0.453

CCCCOC(C)=O + CCCCCCCCC
298.15 K, 101.3 kPa
Conditions	viscosity [mPa·s]
x1 = 0.0459	0.6602
x1 = 0.1339	0.6474
x1 = 0.2324	0.6291
x1 = 0.3814	0.6318
x1 = 0.4218	0.6304
x1 = 0.4836	0.6314
x1 = 0.5989	0.632
x1 = 0.658	0.6382
x1 = 0.7574	0.6466
x1 = 0.8386	0.6563
x1 = 0.9486	0.6723

CCCCCCCCCCCCCCCCCCCC + CCCCCCCCCC
viscosity [mPa·s], 101.3 kPa
Conditions	x2 = 0.201	x2 = 0.4	x2 = 0.5	x2 = 0.6	x2 = 0.8
293.15 K	–	–	–	–	1.56
303.2 K	–	–	2.4	2.01	1.31
313.2 K	3.14	2.38	1.95	1.68	1.12
